Where no end group is shown, it is not given here.
What was measured:
[1] = Amount of peptides digested after 15 hours (Table 1, samples H1P0-H5P0); format: in vitro ADME
[2] = tested on: gastric and pancreatic proteases (pepsin, trypsin, chymotrypsin, elastase, carboxypeptidase)
[3] = tested on: small intestinal brush-border membrane (BBM) enzymes; assay: Brush-border membrane (BBM) digestion of gliadin peptides; conditions: 12 ng/μl BBM protein, rat small intestinal mucosa
[4] = target: T1, tissue transglutaminase (tTGase) (Homo sapiens, UniProt P21980); conditions: vs natural substrate fibrinogen; cited from earlier work
T1 sequence (P21980 1-687): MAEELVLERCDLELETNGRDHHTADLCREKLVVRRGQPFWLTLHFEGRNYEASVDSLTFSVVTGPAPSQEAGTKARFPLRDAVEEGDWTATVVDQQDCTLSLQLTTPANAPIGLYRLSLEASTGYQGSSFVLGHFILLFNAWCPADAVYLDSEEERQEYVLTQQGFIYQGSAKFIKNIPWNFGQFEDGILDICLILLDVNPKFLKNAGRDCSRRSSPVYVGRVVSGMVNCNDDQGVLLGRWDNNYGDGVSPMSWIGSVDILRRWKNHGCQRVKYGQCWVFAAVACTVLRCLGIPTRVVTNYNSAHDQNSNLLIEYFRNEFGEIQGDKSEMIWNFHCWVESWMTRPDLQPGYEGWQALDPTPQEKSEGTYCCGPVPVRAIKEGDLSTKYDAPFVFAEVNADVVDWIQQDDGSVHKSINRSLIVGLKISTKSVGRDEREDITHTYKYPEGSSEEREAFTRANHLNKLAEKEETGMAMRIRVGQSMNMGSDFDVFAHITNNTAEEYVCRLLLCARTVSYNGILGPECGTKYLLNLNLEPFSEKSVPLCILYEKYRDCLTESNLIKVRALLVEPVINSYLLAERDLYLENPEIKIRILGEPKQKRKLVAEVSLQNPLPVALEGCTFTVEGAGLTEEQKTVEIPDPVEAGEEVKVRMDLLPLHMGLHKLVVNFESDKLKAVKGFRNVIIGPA

[5] = BBM fractions prepared from rat small intestinal mucosa

Row | Amount of Peptides Digested after 15 hours ([1]; sample H1P0) [%] | Amount of Peptides Digested after 15 hours ([1]; sample H2P0) [%] | Amount of Peptides Digested after 15 hours ([1]; sample H3P0) [%] | Amount of Peptides Digested after 15 hours ([1]; sample H4P0) [%] | Amount of Peptides Digested after 15 hours ([1]; sample H5P0) [%] | Sequence | stability on prolonged exposure to proteases [2] | half-life of digestion [3] [h] | specificity of tTGase relative to its target peptide sequence in fibrinogen [4] [fold] | not cleaved [5]
1 | >90 | >85 | >95 | >95 | >95 | WQIPEQSR [Control B] |  |  |  | 
2 |  |  |  |  |  | PQPQLPYPQPQLPY (listed as Triticum aestivum) [α-gliadin derived tTGase substrate peptide] |  |  | 5 | 
3 | >90 | >61 | >87 | >96 | >96 | QLQPFPQPQLPY [Control A] |  |  |  | 
4 |  |  |  |  |  | LQLQPFPQPQLPYPQPQLPYPQPQLPYPQPQPF |  |  |  | half-life of digestion >20 h; remains intact

Row | Sequence | Amount of Peptides Digested after 15 hours ([1]; sample H1P0) [%] | Amount of Peptides Digested after 15 hours ([1]; sample H2P0) [%] | Amount of Peptides Digested after 15 hours ([1]; sample H3P0) [%] | Amount of Peptides Digested after 15 hours ([1]; sample H4P0) [%] | Amount of Peptides Digested after 15 hours ([1]; sample H5P0) [%] | stability on prolonged exposure to proteases [2] | half-life of digestion [3] [h] | specificity of tTGase relative to its target peptide sequence in fibrinogen [4] [fold] | not cleaved [5]
5 | LQLQPFPQPQLPYPQPQLPYPQPQLPYPQPQPF [33-mer] | <20 | <20 | <20 | <20 | <20 | remained intact | > 20 |  | 
